The values below are quoted from earlier work in paper PMC8554823 (ACS Central Science, 2021).

In the data set the target is human granzyme B (Homo sapiens, UniProt P10144). Conditions: previously reported value for IEPD alone.
Sequence of human granzyme B (P10144 21-247): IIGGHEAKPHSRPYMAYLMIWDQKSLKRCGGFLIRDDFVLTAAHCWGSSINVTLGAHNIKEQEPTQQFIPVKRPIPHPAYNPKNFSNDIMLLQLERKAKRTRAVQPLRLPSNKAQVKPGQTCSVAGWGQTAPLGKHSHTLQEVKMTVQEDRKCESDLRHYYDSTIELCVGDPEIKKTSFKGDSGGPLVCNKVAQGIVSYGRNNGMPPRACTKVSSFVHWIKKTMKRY

For the substance IEPD, the “catalytic efficiency (kcat/Km)” value is recorded as approximately 3300 M^–1 s^–1.
